Source: US11229664B2, “Treatment of myelosuppression” (priority 2012, dated 2022)
Several values for one entry are separate records, joined by “and”; a condition that tells them apart may be missing. Equal values may be shown once. Read-outs that look alike come from different tables or passages of the source.

What was measured:
[1] = for Deaths: N = 10 per group
Method: All experiments were conducted on female athymic nude mice (Hsd:Athymic Nude-Foxn1nu) supplied by Harlan (Indianapolis, Ind.). Mice were received at four weeks of age, 12-15 grams in weight, and were acclimated for seven days prior to handling. The mice were housed in microisolator cages (Lab Products, Seaford, Del.) and maintained under specific pathogen-free conditions. All procedures were carried out under appropriate institutional guidelines for animal care.
Seven days following inoculation, tumors were measured using calipers and tumor weight was calculated using the animal study management software. […] Body weights were recorded when the mice were randomized and were taken twice weekly thereafter in conjunction with tumor measurements, on each of Days 1, 4, 8, 11, 15, 18, 22, 26, 30, 33, and 36.
The study was terminated when the vehicle control reached an endpoint of 1500 mg, on Day 36.

[2] = test system: BxPC-3 pancreas tumor cell line; assay: BxPC-3 human pancreas tumor xenograft model: tumor weight, tumor growth inhibition (TGI); type: in vivo, female athymic nude mice
Method: Compounds tested in the experiment were as follows. ODSH was made by Pyramid Laboratories, Inc. (Costa Mesa, Calif.). ODSH was provided at a stock concentration of 50 mg/ml and stored at room temperature until use. ODSH was diluted in a 0.9% NaCl solution (B. Braun Medical Inc., Irvine, Calif.) to a concentration of 2.4 mg/ml to deliver 24 mg/kg, in a 10 ml/kg dose volume when administered intravenously. A concentration of 4.8 mg/ml was formulated to deliver a 24 mg/kg dose at a 5 ml/kg dose volume when administered subcutaneously. ODSH was formulated fresh prior to each dose.
Nab-paclitaxel was manufactured by Abraxis BioScience LLC (Bridgewater, N.J.) and diluted in a 0.9% NaCl solution to a concentration of 1.5 mg/ml to deliver 15 mg/kg, in a 10 ml/kg dose volume. All standard agent preparations were made fresh prior to their administration.
BxPC-3 cells were obtained and prepared as follows. The BxPC-3 pancreas tumor cell line was received from American Type Culture Collection (ATCC, Manassas, Va.). Cultures were maintained in RPMI 1640 medium (Hyclone, Logan, Utah) supplemented with 5% fetal bovine serum. The cells were housed in a 5% CO2 atmosphere. The cultures were expanded in tissue culture flasks at a 1:3 split ratio until a sufficient amount of cells were harvested.
BxPC-3 Human Pancreas Tumor Xenograft Model: Female athymic nude mice per treatment condition were inoculated subcutaneously in the right flank with 0.1 ml of a 50% RPMI 1640/50% Matrigel™ (BD Biosciences, Bedford, Mass.) mixture containing a suspension of BxPC-3 tumor cells (approximately 5×10^6 cells/mouse).
Study Director V.1.7.54k (Study Log).
Mean tumor growth inhibition (TGI) was calculated utilizing Formula A below (deaths were not included in the TGI calculations).
All statistical analyses in the xenograft study were performed with GraphPad Prism® v4 software.

[3] = A2780 xenograft study: body weight; type: in vivo, athymic female mice; details: Group 3: 80 mg/kg IP QD 1, 8, 15, individual mice, 80 mg/kg
Method: (§1) ODSH (50 mg/mL stock concentration) was made by Pyramid Laboratories, Inc. and stored at room temperature until use. As described further below, ODSH was administered either intravenously (IV), at a dose of 48 mg/kg and volume of 10 mL/kg, or subcutaneously (SC) at a dose of 24 mg/kg and volume of 5 ml/kg. Carboplatin obtained from a clinical supplier was stored at 4° C. until use. Carboplatin was administered by intraperitoneal injection (IP) at a dose of 80 mg/kg and volume of 10 mL/kg. Saline solution (0.9% NaCl) was used as a vehicle control for ODSH and administered by the same routes and in the same volumes as ODSH.
(§2) Human ovarian cancer cell line A2780 was used in the murine xenograft experiments as follows. Approximately 5×10^6 A2780 cells were used per mouse, injected subcutaneously into the right flank in 0.1 mL of 50% Matrigel/50% media. The study was initiated when tumors reached a size of 90-130 mg. 40 mice were used, 10 per treatment regimen. The mice were normal athymic female mice, aged 6-7 weeks, housed in microisolator cages and maintained under pathogen-free conditions. Tumor and body weights were measured three times per week.
(§3) Four treatment groups were studied.

[4] = test system: Human ovarian cancer cell line A2780; assay: A2780 human ovarian cancer xenograft model: tumor weight; type: in vivo, athymic female mice; design: key to Mouse status printed in place of tumor weight: FD = Found Dead; TS = Terminal Sacrifice; details: for Mouse status printed in place of tumor weight: Groups 2 and 3
Method: as §1, §2, §3

Xa = Xa (Homo sapiens, UniProt P00742); details: cited from earlier work
anti-thrombin III = anti-thrombin III (Homo sapiens, UniProt P01008); details: cited from earlier work
IIa = IIa (Homo sapiens, UniProt P00734+P01008); details: cited from earlier work
anticoagulant activity = details: cited from earlier work
[5] = Total deaths on or before Day 26

Chain of anti-thrombin III (P01008 33-464, species assumed): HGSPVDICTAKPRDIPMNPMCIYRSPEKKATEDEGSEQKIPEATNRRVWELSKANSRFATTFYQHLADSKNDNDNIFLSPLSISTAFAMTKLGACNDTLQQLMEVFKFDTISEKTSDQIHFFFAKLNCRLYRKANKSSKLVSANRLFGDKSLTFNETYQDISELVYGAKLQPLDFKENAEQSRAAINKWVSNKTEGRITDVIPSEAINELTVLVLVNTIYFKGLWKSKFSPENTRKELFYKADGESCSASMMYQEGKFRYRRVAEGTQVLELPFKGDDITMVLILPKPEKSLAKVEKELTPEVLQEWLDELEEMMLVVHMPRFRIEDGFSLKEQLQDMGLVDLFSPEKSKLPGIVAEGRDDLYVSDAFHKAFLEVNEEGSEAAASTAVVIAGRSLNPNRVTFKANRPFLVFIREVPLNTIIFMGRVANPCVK
Chain of Xa (P01008 33-464 partner): as the sequence (P01008 33-464, species assumed) above
Chain of Xa (P00742 235-488 limits assumed): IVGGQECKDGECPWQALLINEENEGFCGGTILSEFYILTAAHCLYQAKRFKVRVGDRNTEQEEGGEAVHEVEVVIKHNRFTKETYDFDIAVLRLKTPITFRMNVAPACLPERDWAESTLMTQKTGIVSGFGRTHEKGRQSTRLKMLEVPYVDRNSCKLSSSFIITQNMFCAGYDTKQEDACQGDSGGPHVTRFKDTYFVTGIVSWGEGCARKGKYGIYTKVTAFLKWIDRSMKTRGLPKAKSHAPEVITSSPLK

Molecule: Nc1ccn([C@@H]2O[C@H](CO)[C@@H](O)C2(F)F)c(=O)n1 [Gemcitabine]
- Deaths [1, 5]: 0
- Deaths ([1]; Total deaths on or before Day 36): 0
- Day by which the mice recovered their weight ([1]; mouse, in vivo): ≤ 18 days
- Day on which maximum weight loss was reached ([1]; mouse, in vivo): 11 days
- Maximum weight loss ([1]; mouse, in vivo): 8.7%
- Starting Weight ([1]; mouse, in vivo): 22.48 g

Molecule: O=C1[O][Pt]2([NH][C@@H]3CCCC[C@H]3[NH]2)[O]C1=O [Oxaliplatin, reference compound]
- Difference in tumor weight compared to vehicle control, Day 26 ([2]; ANOVA with Tukey's Multiple Comparison Test, BxPC-3 xenograft): No significant difference
- Tumor weight, Mean ([2]; Day 26, Group 3: oxaliplatin 10 mg/kg IV wkly x4 (alone to Day 26), from Day 26 gemcitabine 80 mg/kg IP + nab-paclitaxel 15 mg/kg IV): 635.0 mg
- TGI (mean tumor growth inhibition), Day 26 ([2]; Day 26 vs Day 1, compared to vehicle control, BxPC-3 xenograft, ODSH 24 mg/kg BID, oxaliplatin 10 mg/kg, gemcitabine 80 mg/kg (Table 1)): 8.0%
- Day 26 Tumor Weight ([2]; Table 14, treatment administered until Day 26): 635.0 ± 52.3 mg
- Average Weight ([1]; Day 1): 20.82 g
- % Weight Loss or Gain ([1]; Day 4): −2.02%
- % Weight Loss or Gain ([1]; Day 8): −0.82%
- Average Weight ([1]; Day 11): 20.12 g
- % Weight Loss or Gain ([1]; Day 15): −0.05%
- Average Weight ([1]; Day 15): 20.81 g
- % Weight Loss or Gain ([1]; Day 18): −1.78%
- Deaths [1, 5]: 0
- Starting Weight ([1]; group mean body weight at start, dose, schedule and route per group as in table): 20.82 g
- Mice with bruising on the tails or abdomen (site of injection) ([1]; ten mice per group, BxPC-3 xenograft study): One mouse

Molecule: N.N.O=C([O-])C1(C(=O)[O-])CCC1.[Pt+2] [Carboplatin, reference compound]
- Individual weights, Day 1 Weight ([3]; Day 1 (baseline)): 23.2 g and 20.6 g and 22.6 g and 21.7 g and 20.7 g and 22.4 g and 19.7 g and 20.3 g and 21.6 g and 22.2 g
- Day 4 Weight change ([3]; Day 4): −2.6% and −5.3% and −4.4% and −3.2% and 1.9% and −0.4% and −5.6% and −5.9% and −2.3% and −1.8%
- Individual weights, Day 4 Weight ([3]; Day 4): 22.6 g and 19.5 g and 21.6 g and 21.0 g and 21.1 g (2×) and 22.3 g and 18.6 g and 19.1 g and 21.8 g
- Day 6 Weight change ([3]; Day 6): −3.0% (2×) and −4.9% and 1.3% and −1.4% and 3.91% and −0.4% and −4.4% and −3.7% and −3.2%
- Individual weights, Day 6 Weight ([3]; Day 6): 22.5 g and 19.6 g and 22.9 g and 21.4 g and 21.5 g (2×) and 22.3 g and 19.1 g and 19.4 g and 20.8 g
- Day 8 Weight change ([3]; Day 8): 2.2% (2×) and 0.5% (2×) and 6.2% and 1.4% and 5.3% and 1.5% and −1.0% and −1.4%
- Individual weights, Day 8 Weight ([3]; Day 8): 23.7 g and 20.7 g and 24.0 g and 22.0 g and 23.8 g and 22.9 g and 20.0 g and 20.1 g and 21.3 g and 22.3 g
- Day 11 Weight change ([3]; Day 11): −7.3% and −4.9% and 0.9% and −5.5% and 2.4% and −3.6% and −5.1% and −6.4% and −11.1% and −7.7%
- Individual weights, Day 11 Weight ([3]; Day 11): 21.5 g and 19.6 g and 22.8 g and 20.5 g (2×) and 21.2 g and 21.6 g and 18.7 g and 19.0 g and 19.2 g
- Day 14 Weight change ([3]; Day 14): −2.2% and 1.0% and 2.7% and −0.5% and 9.7% and 3.1% and −1.5% and −3.0% and −10.6% and −9.5%
- Individual weights, Day 14 Weight ([3]; Day 14): 22.7 g (2×) and 20.0 g and 23.2 g and 21.6 g and 23.1 g and 19.4 g and 19.7 g and 19.3 g and 20.1 g
- Day 18 Weight change ([3]; Day 18): −4.3% and −1.9% and −5.8% and −10.6% and 6.3% and 4.0% and −8.6% and −7.9% and −17.1% and −9.0%
- Individual weights, Day 18 Weight ([3]; Day 18): 22.2 g and 20.2 g (2×) and 21.3 g and 19.4 g and 22.0 g and 23.3 g and 18.0 g and 18.7 g and 17.9 g
- Day 21 Weight change ([3]; Day 21): −0.4% and 3.9% and −4.9% and −8.3% and 13.5% and 7.1% and −8.6% (2×) and −5.4% and −15.7%
- Individual weights, Day 21 Weight ([3]; Day 21): 23.1 g and 21.4 g and 21.5 g and 19.9 g and 23.5 g and 24.0 g and 18.0 g and 19.2 g and 18.2 g and 20.3 g
- Day 25 Weight change ([3]; Day 25): 8.3% and −3.5% and −6.9% and −2.0% and −8.1%
- Individual weights, Day 25 Weight ([3]; Day 25): 22.3 g and 21.8 g and 20.2 g and 19.9 g and 20.4 g
- Day 28 Weight change ([3]; Day 28): 11.7% and −1.8% and −2.8% and 3.0% and −8.6%
- Individual weights, Day 28 Weight ([3]; Day 28): 23.0 g and 22.2 g and 21.1 g and 20.9 g and 20.3 g
- Tumor weight, Mean ([4]; Day 1): 107.3 mg
- Tumor weight, Median ([4]; Day 1): 105.6 mg
- Tumor weight, individual mice ([4]; Day 1, Mouse 1-10): 104 mg and 105 mg and 106 mg and 110 mg and 113 mg and 116 mg and 127 mg and 94 mg and 96 mg and 102 mg
- Tumor weight, Mean ([4]; Day 4): 148.2 mg
- Tumor weight, Median ([4]; Day 4): 144.5 mg
- Tumor weight, individual mice ([4]; Day 4, Mouse 1-10): 108 mg (2×) and 175 mg and 199 mg and 142 mg and 163 mg and 147 mg and 194 mg and 137 mg and 109 mg
- Tumor weight, Mean ([4]; Day 6): 213.0 mg
- Tumor weight, Median ([4]; Day 6): 215.6 mg
- Tumor weight, individual mice ([4]; Day 6, Mouse 1-10): 114 mg and 264 mg and 239 mg and 223 mg and 300 mg and 208 mg and 256 mg and 200 mg and 157 mg and 169 mg
- Tumor weight, Mean ([4]; Day 8): 356.5 mg
- Tumor weight, Median ([4]; Day 8): 364.2 mg
- Tumor weight, individual mice ([4]; Day 8, Mouse 1-10): 148 mg and 466 mg and 358 mg and 371 mg and 605 mg and 306 mg and 386 mg and 419 mg and 245 mg and 262 mg
- Tumor weight, Mean ([4]; Day 11): 483.1 mg
- Tumor weight, Median ([4]; Day 11): 508.5 mg
- Tumor weight, individual mice ([4]; Day 11, Mouse 1-10): 103 mg and 539 mg and 499 mg and 419 mg and 813 mg and 555 mg and 542 mg and 517 mg and 442 mg and 402 mg
- Tumor weight, Mean ([4]; Day 14): 719.3 mg
- Tumor weight, Median ([4]; Day 14): 750.3 mg
- Tumor weight, individual mice ([4]; Day 14, Mouse 1-10): 96 mg and 875 mg and 799 mg and 628 mg and 1,093 mg and 795 mg and 975 mg and 587 mg and 706 mg and 640 mg
- Tumor weight, Mean ([4]; Day 18): 984.1 mg
- Tumor weight, Median ([4]; Day 18): 1,051.0 mg
- Tumor weight, individual mice ([4]; Day 18, Mouse 1-10): 84 mg and 1,349 mg and 1,218 mg and 713 mg and 1,806 mg and 1,160 mg and 1,168 mg and 942 mg and 730 mg and 671 mg
- Tumor weight, Mean ([4]; Day 21): 1,327.3 mg
- Tumor weight, Median ([4]; Day 21): 1,328.6 mg
- Tumor weight, individual mice ([4]; Day 21, Mouse 1-10): 112 mg and 1,790 mg and 1,596 mg and 834 mg and 2,675 mg and 1,626 mg and 1,439 mg and 1,218 mg and 941 mg and 1,040 mg
- Tumor weight, Mean ([4]; Day 25): 1,761.3 mg
- Tumor weight, Median ([4]; Day 25): 1,921.0 mg
- Tumor weight, individual mice ([4]; Day 25, Mouse 1-10): 2,403 mg and 2,127 mg and 1,109 mg and 1,921 mg and 1,246 mg
- Mouse status printed in place of tumor weight ([4]; Day 25, individual mice): TS
- Tumor weight, Mean ([4]; Day 28): 2,243.0 mg
- Tumor weight, Median ([4]; Day 28): 2,461.0 mg
- Tumor weight, individual mice ([4]; Day 28, Mouse 1-10): 2,877 mg and 2,599 mg and 1,539 mg and 2,461 mg and 1,739 mg
- Mouse status printed in place of tumor weight ([4]; Day 28, individual mice): TS

Molecule: unfractionated heparin
- anti-Xa activity (Xa): 165-190 U/mg
- Kd, affinity for anti-thrombin III (anti-thrombin III): 22 µg/mL
- Kd (anti-thrombin III; read-out: Kd, affinity for anti-thrombin III): 1560 nM
- anti-IIa activity (IIa): 165-190 U/mg
- Anticoagulant activity, USP anticoagulant assay (anticoagulant activity): 165-190 U/mg
